Experimental data taken from US7291627B2, “Dihydroimidazo[5.1-a]-beta-carboline derivatives, method for their preparation, and their application as a drug” (MACEF, priority 2001, dated 2007).

System: JA 657 chicks
Test: Chick sleep/sedation test (IM injection, 90 minute observation)
Assay type: in vivo
Conditions: for Sed (sedation time as % of the period) / TA (time to torpor between injection and first stage of sleep) / TS (duration of the first sleep) / Tsed (total sedation time over the period): 90 min observation; for TS (mins) Placebo diff'ce: extension of first sleep compared with test controls
Protocol: The dihydroimidazo[5,1-a]-β-carboline derivatives of the invention, in particular those in the form of the methyl sulfonate, (soluble), were tested in chicks, and certain compounds that were active in the chick were administered in single doses to six Beagle dogs of both sexes for a polysomnographic study of at least 4 hours duration.
JA 657 chicks from Couvoir Gauguet, 44 Le Pin, were accustomed for at least 6 days to an alternating program of light and darkness with 12 hours of daylight and 12 hours of darkness at a regulated temperature of 25±2° C. They were fed ad libitum and were placed under test compounds in a vivarium in groups of 3 individuals with a mean weight of 100±10 g on the day of the test. At that age in this species, there is no effective meningeal (hemato-encephalic) barrier. The test products were injected in 3 doses (1, 3 and 10 mg/kg) intramuscularly (IM) in solution or in an aqueous suspension (1 drop of Tween 80 per ml), each to two batches of 3 chicks which were observed over 90 minutes. For each test series (18 vivaria), there was at least one batch of negative control chicks receiving the same volume (0.2 ml IM) of water for injectable preparations.
During the 90 minute observation period, the chicks were strongly stimulated every 15 minutes by presenting a full feeding trough, and each 5 minute period was given a grade from among the following 5 states, corresponding to the state of alertness over that period:
Mobile, sitting alert, drowsy, asleep, sleep-like state. The parameters studied were the time to torpor (TA) passed between injection and the first stage of sleep, the duration of the first sleep (TS) and the total sedation time over the period (Tsed), expressed in minutes and as a % of the period (Sed).
To compare the results of tests carried out at different dates, the extension of the duration of the first sleep TS compared with the test controls was recorded.

Structure (SMILES)	Sed (sedation time as % of the period) (Dose: 1 mg/kg) [%]	TA (time to torpor between injection and first stage of sleep) (Dose: 1 mg/kg) [min]	TS (duration of the first sleep) (Dose: 1 mg/kg) [min]	Tsed (total sedation time over the period) (Dose: 1 mg/kg) [min]	TS (mins) Placebo diff'ce (Dose: 1 mg/kg) [min]	Sed (sedation time as % of the period) (Dose: 3 mg/kg) [%]	TA (time to torpor between injection and first stage of sleep) (Dose: 3 mg/kg) [min]	TS (duration of the first sleep) (Dose: 3 mg/kg) [min]	Tsed (total sedation time over the period) (Dose: 3 mg/kg) [min]	TS (mins) Placebo diff'ce (Dose: 3 mg/kg) [min]	Sed (sedation time as % of the period) (Dose: 10 mg/kg) [%]	TA (time to torpor between injection and first stage of sleep) (Dose: 10 mg/kg) [min]	TS (duration of the first sleep) (Dose: 10 mg/kg) [min]	Tsed (total sedation time over the period) (Dose: 10 mg/kg) [min]	TS (mins) Placebo diff'ce (Dose: 10 mg/kg) [min]
CCn1c2c(c3cc(Cl)ccc31)CCn1c-2cnc1C.CS(=O)(=O)O [Example 17, 8-chloro-3-methyl-11-ethyl-5,6-dihydro-imidazo[5,1-a]-β-carboline methane sulfonate]	41.1	12	12	37	11.7	33.3	7.5	23.5	30	23	67.2	5	43.5	60.5	43
CCCc1ncc2n1CCc1c-2n(C)c2ccc(OC)cc12.CS(=O)(=O)O [Example 8, 8-methoxy-11-methyl-3-propyl-5,6-dihydro-imidazo[5,1-a]-β-carboline methane sulfonate]	42.2	16	21.5	38	21	60	8.5	33	54	32.7	76.1	5.5	41	68.5	40.7
CCCc1ncc2n1CCc1c-2[nH]c2ccc(OC)cc12 [Example 7, 8-methoxy-3-propyl-5,6-dihydroimidazo[5,1-a]-β-carboline]	41.4	16.5	16	46	16	41	16.5	27	45.5	27	48.2	12.5	38.5	53.5	38.5
COc1ccc2[nH]c3c(c2c1)CCn1cncc1-3 [Example 3, 8-methoxy-5,6-dihydroimidazo[5,1-a]-β-carboline]	73.9	10	40	66.51	36	78.9	7	66.5	71.0	62.5	86.7	6.5	77.5	78.0	73.5
CS(=O)(=O)O.Cc1ccc2c(c1)c1c(n2C)-c2cnc(C)n2CC1 [Example 19, 3,8,11-trimethyl-5,6-dihydroimidazo[5,1-a]-β-carboline methane sulfonate]	49.4	4	17.5	44.5	11	62.8	3.5	46.5	56.5	38.5	75.0	3.5	60	67.5	52
